What all share (assay): DSF 100 kinase selectivity screen;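 further: compound tested at 20 µM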
What all share (format): binding

Assay [1] deals with T1, ~100 representative kinases (Homo sapiens, UniProt P53779).
T1 construct: Recombinant protein kinase domains with a concentration of 2 μM
Particulars: protein MAPK10; average of three replicates. The procedure, abridged: (§1)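 Each kinase domain, at 2 μM, is mixed with 20 μM test compound and SYPRO Orange in Hepes (20 mM, pH 7.5) with 500 mM NaCl. Temperature is then raised at 3°C/min and fluorescence-monitored unfolding yields the melting temperature change, ΔTm in degrees Celsius.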

Assay [2] concerns the target T2, ~100 representative kinases (Homo sapiens, UniProt P45984).
T2 construct: Recombinant protein kinase domains with a concentration of 2 μM
Particulars: protein MAPK9; average of three replicates. The procedure, abridged: as §1

In assay [3] the target is T3, ~100 representative kinases (Homo sapiens, UniProt Q16539).
T3 construct: Recombinant protein kinase domains with a concentration of 2 μM
The procedure, abridged:
as §1

For assay [4], the target named is T4, ~100 representative kinases (Homo sapiens, UniProt P21675).
T4 construct: Recombinant protein kinase domains with a concentration of 2 μM
Particulars: Protein TAF1; DSF; average of three replicates. The procedure, abridged:
as §1

Assay [5] has as its target T5, ~100 representative kinases (Homo sapiens, UniProt P11309).
T5 construct: Recombinant protein kinase domains with a concentration of 2 μM
Particulars: protein PIM1; average of three replicates. The procedure, abridged:
as §1

Assay [6] concerns the target T6, ~100 representative kinases (Homo sapiens, UniProt Q09013).
T6 construct: Recombinant protein kinase domains with a concentration of 2 μM
T6 sequence (Q09013 1-629): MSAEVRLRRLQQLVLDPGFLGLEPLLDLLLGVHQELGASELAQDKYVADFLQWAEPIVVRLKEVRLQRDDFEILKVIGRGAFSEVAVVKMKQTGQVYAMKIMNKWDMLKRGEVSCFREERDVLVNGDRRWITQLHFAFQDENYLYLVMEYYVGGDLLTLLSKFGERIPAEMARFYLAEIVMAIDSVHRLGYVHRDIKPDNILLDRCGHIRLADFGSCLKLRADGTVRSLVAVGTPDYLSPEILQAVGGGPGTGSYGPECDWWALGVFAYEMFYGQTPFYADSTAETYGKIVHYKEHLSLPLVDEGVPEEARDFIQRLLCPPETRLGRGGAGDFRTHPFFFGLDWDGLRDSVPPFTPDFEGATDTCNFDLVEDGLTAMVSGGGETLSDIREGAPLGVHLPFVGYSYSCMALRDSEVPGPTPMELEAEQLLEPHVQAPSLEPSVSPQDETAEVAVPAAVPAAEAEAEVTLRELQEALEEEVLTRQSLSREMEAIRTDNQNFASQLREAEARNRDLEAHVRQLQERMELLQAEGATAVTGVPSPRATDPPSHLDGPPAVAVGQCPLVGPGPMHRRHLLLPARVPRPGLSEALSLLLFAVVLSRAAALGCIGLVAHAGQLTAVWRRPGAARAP
Particulars: Protein DMPK1; average of three replicates. The procedure, abridged: as §1

Assay [7] addresses T7, ~100 representative kinases (Homo sapiens, UniProt Q16566).
T7 construct: Recombinant protein kinase domains with a concentration of 2 μM
T7 sequence (Q16566 1-473): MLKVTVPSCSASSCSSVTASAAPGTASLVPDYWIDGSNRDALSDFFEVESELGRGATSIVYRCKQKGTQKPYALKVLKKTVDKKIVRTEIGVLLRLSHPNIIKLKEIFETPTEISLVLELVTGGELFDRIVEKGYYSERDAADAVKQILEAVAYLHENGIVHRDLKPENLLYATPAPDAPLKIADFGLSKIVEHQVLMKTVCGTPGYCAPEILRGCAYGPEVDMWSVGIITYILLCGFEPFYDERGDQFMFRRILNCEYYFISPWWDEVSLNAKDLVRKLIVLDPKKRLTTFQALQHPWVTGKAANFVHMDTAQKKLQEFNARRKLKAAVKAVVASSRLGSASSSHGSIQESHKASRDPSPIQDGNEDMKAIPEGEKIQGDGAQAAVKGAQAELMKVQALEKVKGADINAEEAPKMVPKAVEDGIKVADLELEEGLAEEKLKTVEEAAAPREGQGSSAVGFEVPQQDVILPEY
Particulars: Protein CAMK4; average of three replicates. The procedure, abridged: as §1

Assay [8] has as its target T8, ~100 representative kinases (Homo sapiens, UniProt Q9P289).
T8 construct: Recombinant protein kinase domains with a concentration of 2 μM
Particulars: protein MST4; average of three replicates. The procedure, abridged: as §1

The target in assay [9] is T9, ~100 representative kinases (Homo sapiens, UniProt Q6PHR2).
T9 construct: Recombinant protein kinase domains with a concentration of 2 μM
T9 sequence (Q6PHR2 1-472): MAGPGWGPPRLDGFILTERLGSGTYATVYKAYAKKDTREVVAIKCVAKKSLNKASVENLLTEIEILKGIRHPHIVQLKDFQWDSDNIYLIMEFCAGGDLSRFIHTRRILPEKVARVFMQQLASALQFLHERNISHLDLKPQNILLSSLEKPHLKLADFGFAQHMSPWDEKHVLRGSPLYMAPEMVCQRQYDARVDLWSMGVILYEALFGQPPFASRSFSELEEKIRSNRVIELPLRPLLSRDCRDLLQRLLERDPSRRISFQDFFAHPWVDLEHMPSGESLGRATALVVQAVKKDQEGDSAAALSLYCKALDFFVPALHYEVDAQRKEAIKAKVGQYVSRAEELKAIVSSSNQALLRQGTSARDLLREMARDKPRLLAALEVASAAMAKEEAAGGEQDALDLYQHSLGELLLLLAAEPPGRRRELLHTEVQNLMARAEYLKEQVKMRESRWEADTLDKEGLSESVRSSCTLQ
Particulars: Protein ULK3; DSF; average of three replicates. The procedure, abridged:
as §1

In assay [10] the target is T10, ~100 representative kinases (Homo sapiens, UniProt P12931).
T10 construct: Recombinant protein kinase domains with a concentration of 2 μM
Particulars: Protein SRC; DSF; average of three replicates. The procedure, abridged: as §1

Where [11] appears, read: protein MAPK14, average of three replicates.

Like-named read-outs stand apart in the source and are kept apart here.

T8 sequence (Q9P289 whole entry, the tested form may be a part): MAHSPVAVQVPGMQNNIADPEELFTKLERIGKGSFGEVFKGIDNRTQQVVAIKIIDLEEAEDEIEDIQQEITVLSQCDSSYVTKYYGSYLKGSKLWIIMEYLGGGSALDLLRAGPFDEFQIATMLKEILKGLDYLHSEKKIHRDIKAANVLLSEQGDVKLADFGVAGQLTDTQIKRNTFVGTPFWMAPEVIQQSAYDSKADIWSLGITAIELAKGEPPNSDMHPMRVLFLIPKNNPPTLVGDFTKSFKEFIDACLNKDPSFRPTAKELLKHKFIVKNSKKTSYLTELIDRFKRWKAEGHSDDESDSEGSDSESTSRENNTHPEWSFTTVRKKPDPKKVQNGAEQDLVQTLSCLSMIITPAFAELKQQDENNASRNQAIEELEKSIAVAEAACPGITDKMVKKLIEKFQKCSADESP
T4 sequence (P21675 whole entry, the tested form may be a part): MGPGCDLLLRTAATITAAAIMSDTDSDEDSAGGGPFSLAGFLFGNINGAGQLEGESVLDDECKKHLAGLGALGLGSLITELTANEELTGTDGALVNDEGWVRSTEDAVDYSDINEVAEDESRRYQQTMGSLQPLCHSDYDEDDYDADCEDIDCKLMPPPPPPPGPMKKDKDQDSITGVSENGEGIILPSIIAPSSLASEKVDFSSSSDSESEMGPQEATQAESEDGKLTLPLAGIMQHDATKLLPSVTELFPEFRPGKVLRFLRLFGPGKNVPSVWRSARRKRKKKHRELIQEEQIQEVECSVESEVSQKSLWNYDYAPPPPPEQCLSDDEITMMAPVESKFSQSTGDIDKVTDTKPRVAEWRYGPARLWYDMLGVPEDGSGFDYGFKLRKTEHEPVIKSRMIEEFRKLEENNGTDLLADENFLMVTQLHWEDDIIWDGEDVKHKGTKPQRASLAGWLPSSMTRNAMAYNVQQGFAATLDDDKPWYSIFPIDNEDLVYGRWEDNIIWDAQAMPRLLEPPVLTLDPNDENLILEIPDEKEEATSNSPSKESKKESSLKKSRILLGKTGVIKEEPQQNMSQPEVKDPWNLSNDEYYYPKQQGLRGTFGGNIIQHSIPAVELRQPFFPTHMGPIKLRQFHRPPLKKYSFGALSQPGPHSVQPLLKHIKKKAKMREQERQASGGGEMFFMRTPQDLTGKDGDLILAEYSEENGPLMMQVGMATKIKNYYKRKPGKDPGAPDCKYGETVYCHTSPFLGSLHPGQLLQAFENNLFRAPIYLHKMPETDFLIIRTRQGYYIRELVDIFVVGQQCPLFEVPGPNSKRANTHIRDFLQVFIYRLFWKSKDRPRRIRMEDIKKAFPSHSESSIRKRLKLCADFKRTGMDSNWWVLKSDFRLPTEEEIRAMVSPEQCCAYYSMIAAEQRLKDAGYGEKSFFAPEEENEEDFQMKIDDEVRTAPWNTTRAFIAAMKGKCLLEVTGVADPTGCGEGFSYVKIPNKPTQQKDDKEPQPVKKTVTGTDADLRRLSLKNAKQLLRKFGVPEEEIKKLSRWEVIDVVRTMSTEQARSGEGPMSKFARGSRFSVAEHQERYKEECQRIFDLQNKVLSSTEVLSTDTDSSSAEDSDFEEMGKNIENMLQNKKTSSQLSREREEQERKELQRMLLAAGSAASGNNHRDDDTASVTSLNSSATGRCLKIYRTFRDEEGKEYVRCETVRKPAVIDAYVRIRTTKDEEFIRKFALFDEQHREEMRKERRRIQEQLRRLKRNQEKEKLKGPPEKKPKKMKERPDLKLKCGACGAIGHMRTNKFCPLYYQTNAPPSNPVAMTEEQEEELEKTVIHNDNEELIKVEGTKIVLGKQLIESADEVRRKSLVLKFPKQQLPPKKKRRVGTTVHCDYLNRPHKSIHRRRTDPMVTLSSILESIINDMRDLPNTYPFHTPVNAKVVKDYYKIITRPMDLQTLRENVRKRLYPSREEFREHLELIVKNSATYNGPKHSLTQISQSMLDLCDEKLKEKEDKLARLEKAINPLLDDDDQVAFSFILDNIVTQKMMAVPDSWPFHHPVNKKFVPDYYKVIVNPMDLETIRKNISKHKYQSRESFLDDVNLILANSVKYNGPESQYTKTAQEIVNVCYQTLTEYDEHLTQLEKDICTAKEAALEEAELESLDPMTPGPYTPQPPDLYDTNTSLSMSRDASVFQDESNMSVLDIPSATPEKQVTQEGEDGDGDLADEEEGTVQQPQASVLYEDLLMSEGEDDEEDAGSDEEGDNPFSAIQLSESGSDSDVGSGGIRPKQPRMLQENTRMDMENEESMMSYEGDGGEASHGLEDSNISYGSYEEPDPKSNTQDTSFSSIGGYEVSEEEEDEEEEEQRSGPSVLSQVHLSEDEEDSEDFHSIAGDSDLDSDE
T10 sequence (P12931 whole entry, the tested form may be a part): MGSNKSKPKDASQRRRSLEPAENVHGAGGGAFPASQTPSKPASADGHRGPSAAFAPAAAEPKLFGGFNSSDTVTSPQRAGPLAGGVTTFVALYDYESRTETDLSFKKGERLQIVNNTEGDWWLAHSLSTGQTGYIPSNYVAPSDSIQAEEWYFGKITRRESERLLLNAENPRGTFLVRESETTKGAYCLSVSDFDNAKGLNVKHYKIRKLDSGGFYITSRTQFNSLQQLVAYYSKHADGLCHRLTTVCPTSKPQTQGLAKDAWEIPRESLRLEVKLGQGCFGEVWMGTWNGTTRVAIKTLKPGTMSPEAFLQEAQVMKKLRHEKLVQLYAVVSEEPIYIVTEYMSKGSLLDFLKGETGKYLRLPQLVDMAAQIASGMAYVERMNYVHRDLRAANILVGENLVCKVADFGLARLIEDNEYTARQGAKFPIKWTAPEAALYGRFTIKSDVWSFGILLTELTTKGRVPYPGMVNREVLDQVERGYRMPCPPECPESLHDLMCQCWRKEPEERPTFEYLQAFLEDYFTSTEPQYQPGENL
T2 sequence (P45984 whole entry, the tested form may be a part): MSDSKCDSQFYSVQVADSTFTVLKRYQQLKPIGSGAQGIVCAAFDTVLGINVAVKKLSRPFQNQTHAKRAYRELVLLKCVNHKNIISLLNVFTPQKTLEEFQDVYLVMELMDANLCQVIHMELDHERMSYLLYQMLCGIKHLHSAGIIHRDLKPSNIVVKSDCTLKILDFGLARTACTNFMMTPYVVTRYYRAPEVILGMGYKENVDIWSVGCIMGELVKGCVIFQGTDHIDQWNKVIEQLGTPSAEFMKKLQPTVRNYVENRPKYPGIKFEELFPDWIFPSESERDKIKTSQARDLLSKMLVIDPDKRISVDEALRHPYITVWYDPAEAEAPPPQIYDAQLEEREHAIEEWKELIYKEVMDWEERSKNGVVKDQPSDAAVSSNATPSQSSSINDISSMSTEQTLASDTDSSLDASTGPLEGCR
T5 sequence (P11309 whole entry, the tested form may be a part): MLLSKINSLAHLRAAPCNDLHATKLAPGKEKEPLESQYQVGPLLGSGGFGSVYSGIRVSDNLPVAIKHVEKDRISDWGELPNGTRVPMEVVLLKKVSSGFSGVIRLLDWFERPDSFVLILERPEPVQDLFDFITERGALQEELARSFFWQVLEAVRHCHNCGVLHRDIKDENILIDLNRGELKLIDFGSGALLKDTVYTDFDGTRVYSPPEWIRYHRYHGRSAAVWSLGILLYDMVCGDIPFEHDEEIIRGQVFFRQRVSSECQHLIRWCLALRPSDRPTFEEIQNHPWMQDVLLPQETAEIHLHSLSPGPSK
T3 sequence (Q16539 whole entry, the tested form may be a part): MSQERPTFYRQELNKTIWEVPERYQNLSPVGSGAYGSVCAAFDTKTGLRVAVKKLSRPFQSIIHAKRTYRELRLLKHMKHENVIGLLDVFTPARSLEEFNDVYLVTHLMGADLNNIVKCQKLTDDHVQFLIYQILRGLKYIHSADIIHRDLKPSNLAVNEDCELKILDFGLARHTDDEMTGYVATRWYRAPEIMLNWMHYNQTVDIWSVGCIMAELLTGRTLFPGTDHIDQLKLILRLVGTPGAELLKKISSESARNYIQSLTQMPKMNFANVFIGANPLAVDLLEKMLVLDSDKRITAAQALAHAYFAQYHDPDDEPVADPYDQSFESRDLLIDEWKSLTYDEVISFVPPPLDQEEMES
T1 sequence (P53779 whole entry, the tested form may be a part): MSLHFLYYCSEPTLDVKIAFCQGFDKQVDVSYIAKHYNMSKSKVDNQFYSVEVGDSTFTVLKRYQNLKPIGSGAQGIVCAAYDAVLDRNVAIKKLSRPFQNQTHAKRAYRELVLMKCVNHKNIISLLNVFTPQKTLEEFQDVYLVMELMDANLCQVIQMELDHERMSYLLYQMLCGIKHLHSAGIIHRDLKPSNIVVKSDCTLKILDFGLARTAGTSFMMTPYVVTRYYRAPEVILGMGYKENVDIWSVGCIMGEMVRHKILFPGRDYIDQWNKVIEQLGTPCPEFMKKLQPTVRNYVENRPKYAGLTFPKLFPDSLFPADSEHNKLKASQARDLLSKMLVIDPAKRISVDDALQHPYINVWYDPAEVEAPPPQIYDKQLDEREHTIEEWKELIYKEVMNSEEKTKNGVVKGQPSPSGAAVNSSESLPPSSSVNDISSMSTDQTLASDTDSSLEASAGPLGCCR

Turning to `CC(C)(C)c1cc(NC(=O)Nc2cccc(-c3c[nH]c4ncnc(N5CCOCC5)c34)c2)n(-c2ccc3ncccc3c2)n1` [Compound 28], the dTm was 4.27 K in assay [1]; 6.00 K in [2]; 3.86 K in [3] (setting [11]); 1.17 K in assay [4]; 7.97 K in assay [5]; -2.53 K in assay [6]. For the same compound, the dTm in assay [7] is given as 3.69 K; in [8], 6.29 K; in assay [9], 7.06 K; in assay [10], 7.10 K.

Regarding `Cc1ccc(-n2nc(C(C)(C)C)cc2NC(=O)Nc2cccc(-c3c[nH]c4ncnc(N5CCOCC5)c34)c2)cc1` [Compound 29], the dTm in assay [1] was 3.60 K; in assay [2] it was -1.39 K; in assay [3] (setting [11]) it was 5.90 K; in assay [4] it was -10.70 K; in assay [5], 3.53 K; in assay [6], -2.09 K. Further, the dTm is recorded as 2.94 K in assay [7], 3.56 K in assay [8], 7.43 K in [9] and 5.51 K in [10].

With `Cc1ccc(-n2nc(C(C)(C)C)cc2NC(=O)Nc2cccc(-c3c[nH]c4nc(Cl)nc(N5CCOCC5)c34)c2)cc1` [Compound 30], the dTm is listed as -0.06 K in [1]; 3.39 K in [2]; 2.81 K in assay [3] (setting [11]); -4.89 K in assay [4]; 1.31 K in assay [5]; -0.04 K in [6]. For the same compound, the dTm in assay [7] was -1.02 K; in assay [8], -1.63 K; in [9], 0.27 K; in assay [10], 0.05 K.

Turning to `CC(=O)N1CCN(c2nc(Cl)nc3[nH]cc(-c4cccc(NC(=O)Nc5cc(C(C)(C)C)nn5-c5ccc(C)cc5)c4)c23)CC1` [Compound 31], the dTm in assay [1] is 0.82 K; in assay [2], 5.47 K; in [3] (setting [11]) it was 3.92 K; in [4], -2.02 K; in assay [5], 3.25 K; in assay [6], -0.66 K. The dTm is -0.77 K in assay [7], -1.15 K in assay [8], 0.92 K in [9] and 0.41 K in assay [10].

For `CCSc1nc(NC)c2c(-c3cccc(NC(=O)Nc4cc(C(C)(C)C)nn4-c4ccc(C)cc4)c3)c[nH]c2n1` [Compound 32], the dTm in [1] is on record as 3.75 K; in assay [2], 11.55 K; in assay [3] (setting [11]), 5.12 K; in [4] it was -5.70 K; in assay [5], 1.50 K; in assay [6], 0.38 K. Moreover, the dTm is 0.28 K in assay [7], -2.75 K in assay [8], 0.44 K in [9] and 0.61 K in [10].

In the case of `COc1cc(C(=O)N2CCOCC2)c(F)cc1Nc1nc(N(C)C)c2c(Cl)c[nH]c2n1` [Compound 36], the dTm in [1] is recorded as 5.50 K; in assay [2], 2.71 K; in assay [3] (setting [11]), -0.75 K; in assay [4], 1.23 K; in assay [5] it was -0.51 K; in assay [6], 0.30 K. Further, the dTm is given as 1.63 K in [7], -3.37 K in [8], 4.06 K in assay [9] and 0.60 K in assay [10].

With `COc1cc(S(C)(=O)=O)ccc1Nc1nc(N(C)C)c2c(Cl)c[nH]c2n1` [Compound 37], the dTm is 2.71 K in assay [1]; 0.96 K in [2]; -0.35 K in assay [3] (setting [11]); 1.43 K in assay [4]; -0.49 K in assay [5]; 0.0114 K in [6]. Besides, the dTm in assay [7] was -0.60 K; in [8], -1.65 K; in assay [9], 1.01 K; in [10], 0.09 K.

As to `CCNc1nc(Nc2cc(F)c(C(=O)N3CCOCC3)cc2OC)ncc1C(F)(F)F` [GNE-7915], the dTm in assay [1] was 0.33 K; in [2], 0.58 K; in [3] (setting [11]), 0.16 K; in assay [4] it was -0.58 K; in assay [5], 0.44 K; in assay [6] it was 0.77 K. The dTm in assay [7] is 0.15 K; in [8], 0.65 K; in assay [9] it was 1.79 K; in [10], -0.11 K.

With `Cc1ccc(C(=O)Nc2ccc(CN3CCN(C)CC3)c(C(F)(F)F)c2)cc1C#Cc1cnc2[nH]ncc2c1` [GZD-824, reference compound], the dTm in assay [1] is 2.46 K; in assay [2] it was 4.93 K; in [3], 17.66 K; in assay [4], -0.68 K; in assay [5] it was -0.44 K; in assay [6] it was 3.13 K. In addition, the dTm was found to be 0.32 K in assay [7], 8.85 K in [8], 9.35 K in assay [9] and 2.45 K in assay [10].

Turning to `C[C@@H]1CN(c2cc(-c3n[nH]c4ccc(OC5(C)CC5)cc34)ncn2)C[C@H](C)O1` [MLi2], the dTm in assay [1] is given as 0.0276 K; in assay [2], 0.30 K; in assay [3] (setting [11]) it was 0.038 K; in [4], -0.34 K; in [5] it was 0.81 K; in [6] it was 0.14 K. Besides, the dTm in assay [7] is given as 1.22 K; in assay [8], -0.41 K; in assay [9], 0.19 K; in assay [10], 0.28 K.

With `Cn1cc(-c2c[nH]c3ncnc(N4CCOCC4)c23)cc1C#N` [PFE-360], the dTm in [1] is on record as -1.02 K; in assay [2], 0.17 K; in [3] (setting [11]), 0.53 K; in [4] it was -0.43 K; in [5] it was 1.04 K; in assay [6], 1.66 K. Also, the dTm in [7] was 0.56 K; in assay [8], 1.97 K; in [9], 5.19 K; in assay [10], -0.08 K.

For `CNC(=O)c1cc(Oc2ccc(NC(=O)Nc3cc(C(C)(C)C)nn3-c3ccc4ncccc4c3)c(F)c2)ccn1` [Rebastinib, reference compound], the dTm in assay [1] is 3.02 K; in assay [2], 9.78 K; in assay [3] (setting [11]), 20.84 K; in assay [4], -2.54 K; in [5] it was 0.65 K; in assay [6], -0.79 K. The dTm in [7] was 1.22 K; in assay [8], 5.29 K; in assay [9], 3.80 K; in assay [10] it was 10.52 K.
